Test results reported in ChEMBL document CHEMBL1201862, “PubChem BioAssay data set” (2004).
Calls of active or inactive are those of the source. Cut-off read from the data, not from the text of the source, for most assays here: actives have a measured EC50 and inactives only a lower limit.

Legend:
[1] = molecular target: T1, Ubiquitin-conjugating enzyme E2 N (Homo sapiens, UniProt P61088); assay type: functional;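 note: Dose-response confirmation in a TR-FRET assay detecting UBC13-driven polyubiquitin chain formation, inhibition measured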
T1 sequence (P61088 whole entry): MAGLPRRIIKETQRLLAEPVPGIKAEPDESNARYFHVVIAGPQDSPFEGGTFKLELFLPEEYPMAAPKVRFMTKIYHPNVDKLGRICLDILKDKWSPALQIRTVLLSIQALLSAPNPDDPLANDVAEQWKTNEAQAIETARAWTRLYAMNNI

[2] = molecular target: T2, RNA-binding protein pos-1 (Caenorhabditis elegans, UniProt G5EF15); experiment: disruptors of C. elegans POS-1 RNA interaction – biochemical, fluorescence polarization, dose response (AID 1964);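 note: purified POS-1 fused to maltose binding protein made in E. coli; potency of compounds blocking POS-1 binding to fluorescent RNA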
T2 sequence (G5EF15 whole entry): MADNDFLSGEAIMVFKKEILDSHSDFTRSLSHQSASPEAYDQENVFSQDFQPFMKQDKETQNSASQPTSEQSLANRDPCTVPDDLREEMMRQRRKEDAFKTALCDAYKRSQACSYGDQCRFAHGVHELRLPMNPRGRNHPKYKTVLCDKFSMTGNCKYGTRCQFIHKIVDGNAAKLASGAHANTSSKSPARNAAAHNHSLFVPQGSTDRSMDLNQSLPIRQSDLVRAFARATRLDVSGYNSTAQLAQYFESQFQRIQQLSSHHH

[3] = molecular target: T3, Zinc finger protein mex-5 (Caenorhabditis elegans, UniProt Q9XUB2); experiment: potency of MEX-5 RNA-binding blockers – biochemical, C. elegans, fluorescence polarization, dose response (AID 1960)
T3 sequence (Q9XUB2 whole entry): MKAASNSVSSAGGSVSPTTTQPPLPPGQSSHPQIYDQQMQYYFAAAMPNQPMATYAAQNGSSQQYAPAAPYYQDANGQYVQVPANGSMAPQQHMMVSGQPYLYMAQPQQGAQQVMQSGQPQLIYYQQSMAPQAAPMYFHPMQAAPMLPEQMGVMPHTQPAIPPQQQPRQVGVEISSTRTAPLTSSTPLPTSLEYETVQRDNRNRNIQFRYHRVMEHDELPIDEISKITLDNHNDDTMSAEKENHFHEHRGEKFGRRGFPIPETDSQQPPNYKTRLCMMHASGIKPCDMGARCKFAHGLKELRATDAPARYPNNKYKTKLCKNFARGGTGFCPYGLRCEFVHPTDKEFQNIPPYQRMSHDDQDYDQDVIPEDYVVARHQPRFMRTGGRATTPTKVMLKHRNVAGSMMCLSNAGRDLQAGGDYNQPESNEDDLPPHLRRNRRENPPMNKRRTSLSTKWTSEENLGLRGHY

[4] = molecular target: T4, Corticotropin-releasing factor receptor 2/Corticotropin-releasing factor-binding protein (Homo sapiens, UniProt P24387+Q13324); experiment: activators of CRF receptor 2 with binding protein – uHTS hits, confirmation (AID 602473); assay type: functional; conditions: read-out: EC50_Mean
T4 sequence (Q13324 whole entry): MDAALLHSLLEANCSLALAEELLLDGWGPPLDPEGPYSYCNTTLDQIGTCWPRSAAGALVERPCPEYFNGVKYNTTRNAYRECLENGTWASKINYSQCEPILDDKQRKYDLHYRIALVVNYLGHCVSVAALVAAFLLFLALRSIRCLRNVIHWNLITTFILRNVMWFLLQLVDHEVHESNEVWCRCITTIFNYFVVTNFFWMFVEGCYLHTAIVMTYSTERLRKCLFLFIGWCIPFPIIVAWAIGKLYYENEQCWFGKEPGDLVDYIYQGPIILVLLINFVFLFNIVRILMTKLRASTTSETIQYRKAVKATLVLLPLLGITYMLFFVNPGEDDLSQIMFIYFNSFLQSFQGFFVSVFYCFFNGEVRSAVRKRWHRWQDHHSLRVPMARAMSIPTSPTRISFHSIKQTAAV
T4 sequence (P24387 whole entry): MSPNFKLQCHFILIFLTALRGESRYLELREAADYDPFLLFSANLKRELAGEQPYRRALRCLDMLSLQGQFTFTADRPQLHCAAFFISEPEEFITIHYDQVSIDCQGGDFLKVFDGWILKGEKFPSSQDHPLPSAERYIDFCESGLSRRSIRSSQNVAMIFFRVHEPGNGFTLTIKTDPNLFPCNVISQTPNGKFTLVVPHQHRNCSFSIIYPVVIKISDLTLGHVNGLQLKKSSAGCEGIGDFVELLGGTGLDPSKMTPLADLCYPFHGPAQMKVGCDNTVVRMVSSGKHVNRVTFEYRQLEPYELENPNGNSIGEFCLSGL

[5] = tested on: BJ; experiment: cells; assay type: functional, cell-based; conditions: Homo sapiens
[6] = tested on: BJ; experiment: BJ-TERT-LT-ST fibroblast viability loss – cell-based, RAS-independent, luminescence, dose response (AID 1935); assay type: functional; conditions: Homo sapiens;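 note: BJ fibroblasts immortalized with TERT plus LT and ST oncogenes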
[7] = DRD fibroblast viability loss – cell-based, non-viral oncogenic, luminescence, dose response (AID 1934); assay type: functional; conditions: Homo sapiens
[8] = Luminescence Cell-Based Dose Retest to Confirm Inhibitors of Cancer Stem Cells. [Related pubchem assays (depositor defined):AID2717, AID2721]; assay type: functional; conditions: Homo sapiens
[9] = tested on: BJ; experiment: BJ-TERT fibroblast viability loss – cell-based, RAS-independent, luminescence, dose response (AID 1933); assay type: functional; conditions: Homo sapiens
[10] = tested on: INS1; experiment: INS-1E survival protection against cytokine death – cell-based, luminescence, retest, dose response (AID 449756); assay type: functional; conditions: Rattus norvegicus;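 note: cell death triggered by IL-1 beta plus TNF-alpha plus IFN-gamma mixture; protective hits raise ATP signal compared with cytokine alone wells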
[11] = viability of HCT116 lacking mutant beta-catenin – cell-based, human colon tumor, dose response (AID 1045); assay type: functional;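 note: HCT116 colon tumor cells with beta catenin knocked out; cells exposed to compound for 60 hours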
[12] = viability of PTEN-deleted HCT116 cells – cell-based, HCT116 PTEN knockout, dose response (AID 1047); assay type: functional;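 note: HCT116 colon tumor cells with PTEN knocked out; cells exposed to compound for 60 hours before readout; potency for loss of cell viability measured by luminescence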
[13] = Luminescence Cell-Based Dose Response HTS to Identify Activators of Luciferase Translation or Activity in H4 […] Cells. [Related pubchem assays: 1829 (Project Summary), 1814 (Primary HTS)]; assay type: functional
[14] = tested on: H4; experiment: Luminescence Cell-Based Dose Response HTS to Identify Activators of 5'UTR Stem-Loop Driven Prion Protein mRNA Translation in H4 Neuroglioblastoma Cells. [Related pubchem assays: 1829 (Project Summary), 1814 (Primary HTS)]; assay type: functional; conditions: Homo sapiens
[15] = cells; assay type: functional
[16] = HIV-1 AD8 envelope cell-cell fusion blockers – cherry-pick, dose response (AID 652062); assay type: functional, cell-based;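 note: luciferase signal from cell-cell fusion driven by HIV-1 clade B AD8 Env; potency is for inhibitors of fusion seen as a drop in luminescence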
[17] = viability of uninfected HEp-2 cells – cell-based, HTS, cytotoxicity control for RSV inhibitor project, dose response (AID 2410); assay type: functional; conditions: human respiratory syncytial virus
[18] = Trypanosoma cruzi growth suppression in host cells – NIH3T3 host cells, beta-gal luminescence, confirmation (AID 2044); assay type: functional, cell-based;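 note: intracellular parasites grown in NIH/3T3 mouse fibroblasts as host cells; luminescent beta-galactosidase reporter signal from transgenic T. cruzi replicating inside host cells; inhibitors lower the luminescence signal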
[19] = tested on: Streptococcus; experiment: GAS UMAA2166 growth inhibition – luminescence, BacTiterGlo, counter-screen for streptokinase expression inhibitor project, dose response (AID 1915); assay type: functional, organism-based;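 note: potency for reduction of bacterial viability or growth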
[20] = tested on: Vero; experiment: cells; assay type: functional; conditions: Chlorocebus sabaeus
[21] = NIH3T3 cell viability loss – ATP luminescence, mouse fibroblasts, counter-screen, dose response (AID 2010); assay type: functional, cell-based;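 note: cells exposed to compound for about 90 hours before reading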
[22] = tested on: Streptococcus sp. 'group A'; experiment: Streptococcus pyogenes SK(-)GAS viability under kanamycin – luminescence, BacTiterGlo, confirmation, counter-screen for streptokinase expression inhibitor project, dose response (AID 1900); assay type: functional, organism-based
[23] = blockers of HIV-1 ZM109 envelope-driven cell-cell fusion – HeLa effector, CEM target cells, luciferase, cherry-pick, dose response (AID 652058); assay type: functional, cell-based;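 note: luciferase signal from HIV-1 Env mediated cell-cell fusion of effector and target cells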
[24] = microbe, parasite or virus in culture; assay type: functional; conditions: Mycobacterium tuberculosis
[25] = molecular target: T5, Streptokinase A (Streptococcus pyogenes serotype M1, UniProt P10520); experiment: viability-normalized secreted streptokinase activity reduction – plasminogen activation absorbance, OD405, dose response (AID 1914); assay type: functional, Streptococcus pyogenes M1 GAS;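 note: secreted streptokinase activity via plasminogen activation per viability signal from cell pellet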
T5 sequence (P10520 whole entry): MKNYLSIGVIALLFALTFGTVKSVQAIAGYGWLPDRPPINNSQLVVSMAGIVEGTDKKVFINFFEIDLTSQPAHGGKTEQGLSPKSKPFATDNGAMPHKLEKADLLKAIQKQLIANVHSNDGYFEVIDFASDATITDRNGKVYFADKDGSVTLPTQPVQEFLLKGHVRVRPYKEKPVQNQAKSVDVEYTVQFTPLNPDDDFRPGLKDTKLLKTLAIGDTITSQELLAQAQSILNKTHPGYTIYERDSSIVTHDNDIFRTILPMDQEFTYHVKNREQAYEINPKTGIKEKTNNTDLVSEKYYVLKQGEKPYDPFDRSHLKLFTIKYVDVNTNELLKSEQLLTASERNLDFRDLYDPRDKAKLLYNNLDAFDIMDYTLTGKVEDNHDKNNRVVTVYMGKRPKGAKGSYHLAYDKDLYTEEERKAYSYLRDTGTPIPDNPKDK

[26] = P. falciparum Dd2 growth inhibitors, dose response, SYBR Green, cherry-picked samples (AID 1159567); assay type: functional, cell-based

CCCC(=O)N(CCN1CCOCC1)c1nc2c(C)cccc2s1
IC50 [1]: > 20 µM (inactive)

CCN(CC)S(=O)(=O)c1ccc(N/C=C2\C(=O)N(C)C(=O)C(C#N)=C2C)cc1
EC50 [2]: 32.7 µM (active)
EC50 [3]: 44.4 µM (active)

Cc1cc(N2CCOCC2)nc(NCc2ccccc2)n1
EC50 [4]: 5.68 µM (active)

N#CC1=C(N)N2C(=C(C#N)C1c1ccc(Br)cc1)Nc1ccccc12 (stereo not drawn)
EC50 [5]: 62.4 µM (active)
EC50 [6]: > 150 µM (inconclusive)
EC50 [7]: 9.84 µM (active)
AC50 [8]: 794 nM (active)
EC50 [9]: 11.8 µM (inconclusive)
AC50 [10]: 3.56 µM (active)

O=C(NCC1OCCc2ccccc21)c1ccc(NC(=O)c2cccc(Br)c2)cc1 (stereo not drawn)
EC50 [11]: 36.9 µM (active)
EC50 [12]: 25.2 µM (active)

CCN(CC)c1ccc(N=Nc2nc[nH]n2)cc1
EC50 [2]: 73.4 µM (active)
EC50 [3]: > 300 µM (inconclusive)

O=[N+]([O-])c1ccc2nc(O)c(/C=C(\O)c3ccccc3)nc2c1
EC50 [2]: 20.1 µM (active)
EC50 [3]: > 300 µM (inconclusive)

CCOC(=O)c1sc2nc3n(c(=O)c2c1C)CCCCC3
EC50 [13]: 27.9 µM (active)
EC50 [14]: 101 µM (active)

O=C1Nc2cc(Cl)cnc2N2CCCC12 (stereo not drawn)
EC50 [2]: 16.8 µM (active)
EC50 [3]: 12.5 µM (active)

O=C(Nc1ccc(-c2nc3ccccc3c(=O)o2)cc1)c1ccco1
IC50 [15]: 0.84 µM (active)

CCC1(C)Cc2c(sc3nnn(CC(=O)Nc4cccc5ccccc45)c(=O)c23)CO1 (stereo not drawn)
EC50 [11]: 23.9 µM (active)
EC50 [12]: 25.8 µM (active)

COc1ccc(/C=C/c2nc(S(=O)(=O)c3ccccc3)c(NCCCN(C)C)o2)cc1OC
AC50 [16]: 14.6 µM (active)

Cc1cc(NC(=O)CSc2nc3c(c(=O)n2-c2ccc(Br)cc2)SCC3)no1
EC50 [11]: 155 µM (active)

Cc1cccc(-c2nc(C#N)c(NCC3CCCO3)o2)c1 (stereo not drawn)
EC50 [13]: 1.97 µM (active)
EC50 [14]: 36 µM (active)

COc1ccc(NC(=O)C(c2cc3c(cc2[N+](=O)[O-])OCO3)N(C)c2ccccc2)cc1 (stereo not drawn)
EC50 [4]: > 53 µM (inactive)

CCOC(=O)CC(=O)Nc1ccc(C(=O)OCC)cc1
IC50 [15]: 22.4 µM (active)

CCc1nc2sc3c(c2c(=O)n1NC(=O)CCl)CCCC3
EC50 [5]: > 150 µM (not active)
EC50 [6]: > 150 µM (not active)
EC50 [7]: > 150 µM (not active)
CC50 [17]: 10.2 µM (active)
EC50 [9]: > 150 µM (not active)

O=C1NC(=O)N(Cc2ccc(F)cc2)C(=O)/C1=C\c1ccc([N+](=O)[O-])s1
IC50 [15]: 24.7 µM (active)

COc1cc(/C=C/c2ccc3cccc(O)c3n2)c(Br)cc1O
EC50 [18]: 3.92 µM (active)
EC50 [19]: 2.68 µM (active)
CC50 [20]: 8.46 µM (active)
EC50 [21]: > 60 µM (not active)
EC50 [22]: 865 nM (active)

CN(C)c1ccc(/C=C2\C(=N)N3N=C(CC(=O)N4CCCCC4)SC3=NC2=O)cc1
EC50 [4]: 6.36 µM (active)

O=C(NCC1CCCCC1)c1ccc(F)cc1Cl
EC50 [13]: 107 µM (active)
EC50 [14]: > 120 µM (not active)

Cc1ccsc1C1NC(=O)c2c(sc3c2CCN(C)C3)N1 (stereo not drawn)
EC50 [4]: > 53 µM (inactive)

Cc1cc(O)c(CN(C)C)c2c1C(=O)/C(=C/c1ccco1)O2
EC50 [2]: 32.1 µM (active)
EC50 [3]: 39.8 µM (active)

C=C[C@](C)(CC[C@@]1(C)C(C)CC(OC2OC(C)C(OC3OC(COC(C)=O)C(O)C(O)C3O)C(O)C2O)[C@@]2(C)C(C)=CCCC12)OC1OC(C)C(O[C@@H]2O[C@@H](C)C(O)C(O)[C@H]2O)C(O)C1O (stereo partly drawn)
IC50 [1]: > 20 µM (inactive)

NCCCC[C@@H](C(=O)N1CCNCC1)n1cc(CN)nn1
IC50 [1]: > 20 µM (inactive)

C=CCC[C@@H](Cc1ccc(F)cc1)C(=O)OC[C@H](Cc1c[nH]c2ccccc12)NC(=O)[C@@H](CC=C)CC(=O)NCCO
EC50 [4]: 11.4 µM (active)

COC(=O)C1CCN(C(=O)COC(=O)c2cc(S(=O)(=O)N3CCOCC3)ccc2C)CC1
AC50 [23]: 17.5 µM (active)
AC50 [16]: 45.6 µM (active)

C/C(=N\NC(=O)CSCc1ccc([N+](=O)[O-])cc1)c1ccccc1O
IC50 [1]: > 20 µM (inactive)

CC1=CC(C)(C)n2c(O)c(/N=N/C(=N)S)c3cc(C)cc1c32
IC50 [1]: > 20 µM (inactive)

C/C(=N\NC(=O)c1cc([N+](=O)[O-])cc([N+](=O)[O-])c1)c1ccco1
IC50 [15]: 3.35 µM (active)
EC50 [18]: 0.768 µM (active)
EC50 [21]: > 60 µM (not active)

Oc1ccc(Br)cc1/C=N/Nc1nc(N2CCCCC2)nc(N2CCOCC2)n1
EC50 [18]: 1.91 µM (active)
CC50 [24]: > 40 µM (active)
EC50 [19]: 24.7 µM (active)
EC50 [25]: 33.6 µM (active)
EC50 [21]: > 60 µM (not active)
EC50 [22]: 3480 nM (active)

Cc1ccccc1S(=O)(=O)N1[C@H](C#N)[C@H](c2ccc(C#CC3CCCC3)cc2)[C@@H]1CO
AC50 [26]: 5.11 µM (active)
